Values quoted from earlier work as cited in US20040202718A1, “Dosage form for treatment of diabetes mellitus” (priority 2001, published 2004).
Counter-ions that a name gives are not always drawn.

Details: clinical study disclosed in U.S. Pat. No. 5,922,769

CN(C)C(=N)N=C(N)N [Metformin hydrochloride]
maximum dose which does not cause any side-effects: 1500 mg/day
